Measurements taken from patent US8722656B2, “Cephalosporins useful as antibacterial agents” (Zoetis LLC, priority 2011, dated 2014).
≈ marks a conversion by molar mass, not a printed value.

Experiments:
E. coli 25922 = experiment: Dilution antimicrobial susceptibility test (M07-A8), E. coli; type: cell-based, Escherichia coli; details: for MIC: Escherichia coli, antibacterial activity by dilution susceptibility test, isolate 25922; for E. coli/P. multocida: selectivity for P. multocida over E. coli (ratio of the two values)
Protocol: (§1) Compounds of the present invention were tested against an assortment of Gram-negative and Gram-positive organisms using the industrial standard techniques described in Methods for Dilution Antimicrobial Susceptibility Tests for Bacteria That grow Aerobically; Approved Standard-Eighth Edition, […]-A8, Vol. 29 No. 2 Replaces […]-A7 Vol. 26 No. 2. […] When comparing the activity against these isolates with that of the marketed human health drug of cefepime (screened in the same panel), the exemplified compounds of the present invention show >200 times more selectivity over E. coli.

P. multo 43719 = experiment: Dilution antimicrobial susceptibility test (M07-A8), P. multocida; type: cell-based; details: Pasteurella multocida; antibacterial activity by dilution susceptibility test, isolate 43719
Protocol: as §1

M. haemo 43411 = experiment: Dilution antimicrobial susceptibility test (M07-A8), M. haemolytica; type: cell-based; details: Mannheimia haemolytica; antibacterial activity by dilution susceptibility test, isolate 43411
Protocol: as §1

Row | Compound | MIC (E. coli 25922) | E. coli/P. multocida (E. coli 25922) | MIC (P. multo 43719) | MIC (M. haemo 43411)
1 | CO/N=C(\C(=O)N[C@@H]1C(=O)N2C(C(=O)O)=C(Cc3cc(S(=O)(=O)NCCSC(C)=O)ccc3C)CS[C@H]12)c1csc(N)n1 [Example 20, (6R,7R)-3-(5-{[2-(acetylsulfanyl)ethyl]sulfamoyl}-2-methylbenzyl)-7-{[(2Z)-2-(2-amino-1,3-thiazol-4-yl)-2-(methoxyimino)acetyl]amino}-8-oxo-5-thia-1-azabicyclo[4.2.0]oct-2-ene-2-carboxyl is acid] | 64 µg/mL (≈ 95.7 µM) | 256 | 0.25 µg/mL (≈ 0.374 µM) | 0.25 µg/mL (≈ 0.374 µM)
2 | CCN(CCSC(C)=O)S(=O)(=O)c1cccc(CC2=C(C(=O)O)N3C(=O)[C@@H](NC(=O)/C(=N\OC)c4csc(N)n4)[C@H]3SC2)c1 [Example 21, (6R,7R)-3-(3-{[2-(acetylsulfanyl)ethyl](ethyl)sulfamoyl}benzyl)-7-{[(2Z)-2-(2-amino-1,3-thiazol-4-yl)-2-(methoxyimino)acetyl]amino}-8-oxo-5-thia-1-azabicyclo[4.2.0]oct-2-ene-2-carboxylic acid] | 32 µg/mL (≈ 46.9 µM) | 1066 | 0.03 µg/mL (≈ 0.0439 µM) | 0.125 µg/mL (≈ 0.183 µM)
3 | CNS(=O)(=O)c1ccc(OC)c(CC2=C(C(=O)O)N3C(=O)[C@@H](NC(=O)/C(=N\OC)c4csc(N)n4)[C@H]3SC2)c1 [Example 22, (6R,7R)-7-{[(2Z)-2-(2-amino-1,3-thiazol-4-yl)-2-(methoxyimino)acetyl]amino}-3-[2-methoxy-5-(methylsulfamoyl)benzyl]-8-oxo-5-thia-1-azabicyclo[4.2.0]oct-2-ene-2-carboxylic acid] | 64 µg/mL (≈ 107 µM) | 256 | 0.25 µg/mL (≈ 0.419 µM) | 0.125 µg/mL (≈ 0.209 µM)
4 | CNS(=O)(=O)c1cccc(CC2=C(C(=O)O)N3C(=O)[C@@H](NC(=O)/C(=N\OC)c4csc(N)n4)[C@H]3SC2)c1 [Example 23, (6R,7R)-7-{[(2Z)-2-(2-amino-1,3-thiazol-4-yl)-2-(methoxyimino)acetyl]amino}-3-[3-(methylsulfamoyl)benzyl]-8-oxo-5-thia-1-azabicyclo[4.2.0]oct-2-ene-2-carboxylic acid] | 16 µg/mL (≈ 28.2 µM) | 128 | 0.125 µg/mL (≈ 0.221 µM) | 0.06 µg/mL (≈ 0.106 µM)
5 | CNS(=O)(=O)c1ccc(C)c(CC2=C(C(=O)O)N3C(=O)[C@@H](NC(=O)/C(=N\OC)c4csc(N)n4)[C@H]3SC2)c1 [Example 24, (6R,7R)-7-{[(2Z)-2-(2-amino-1,3-thiazol-4-yl)-2-(methoxyimino)acetyl]amino}-3-[2-methyl-5-(methylsulfamoyl)benzyl]-8-oxo-5-thia-1-azabicyclo[4.2.0]oct-2-ene-2-carboxylic acid] | 4 µg/mL (≈ 6.89 µM) | 266 | 0.015 µg/mL (≈ 0.0258 µM) | 0.008 µg/mL (≈ 0.0138 µM)
6 | CO/N=C(\C(=O)N[C@@H]1C(=O)N2C(C(=O)O)=C(Cc3cccc(S(=O)(=O)N(C)C)c3)CS[C@H]12)c1csc(N)n1 [Example 25, (6R,7R)-7-{[(2Z)-2-(2-amino-1,3-thiazol-4-yl)-2-(methoxyimino)acetyl]amino}-3-[3-(dimethylsulfamoyl)benzyl]-8-oxo-5-thia-1-azabicyclo[4.2.0]oct-2-ene-2-carboxylic acid] | 8 µg/mL (≈ 13.8 µM) | 1000 | 0.008 µg/mL (≈ 0.0138 µM) | 0.008 µg/mL (≈ 0.0138 µM)
7 | CNS(=O)(=O)c1cc(CC2=C(C(=O)O)N3C(=O)[C@@H](NC(=O)/C(=N\OC)c4csc(N)n4)[C@H]3SC2)cc(OC)c1 [Example 26, (6R,7R)-7-{[(2Z)-2-(2-amino-1,3-thiazol-4-yl)-2-(methoxyimino)acetyl]amino}-3-[3-methoxy-5-(methylsulfamoyl)benzyl]-8-oxo-5-thia-1-azabicyclo[4.2.0]oct-2-ene-2-carboxylic acid] | 4 µg/mL (≈ 6.7 µM) | 266 | 0.015 µg/mL (≈ 0.0251 µM) | 0.008 µg/mL (≈ 0.0134 µM)
8 | CNS(=O)(=O)c1cc(C)cc(CC2=C(C(=O)O)N3C(=O)[C@@H](NC(=O)/C(=N\OC)c4csc(N)n4)[C@H]3SC2)c1 [Example 27, (6R,7R)-7-{[(2Z)-2-(2-amino-1,3-thiazol-4-yl)-2-(methoxyimino)acetyl]amino}-3-[3-methyl-5-(methylsulfamoyl)benzyl]-8-oxo-5-thia-1-azabicyclo[4.2.0]oct-2-ene-2-carboxylic acid] | 8 µg/mL (≈ 13.8 µM) | 533 | 0.015 µg/mL (≈ 0.0258 µM) | 0.008 µg/mL (≈ 0.0138 µM)
9 | CO/N=C(\C(=O)N[C@@H]1C(=O)N2C(C(=O)O)=C(Cc3ccc(S(C)(=O)=O)cc3C)CS[C@H]12)c1csc(N)n1 [Example 28, (6R,7R)-7-{[(2Z)-2-(2-amino-1,3-thiazol-4-yl)-2-(methoxyimino)acetyl]amino}-3-[2-methyl-4-(methylsulfonyl)benzyl]-8-oxo-5-thia-1-azabicyclo[4.2.0]oct-2-ene-2-carboxylic acid] | 4 µg/mL (≈ 7.07 µM) | 133 | 0.03 µg/mL (≈ 0.053 µM) | 0.06 µg/mL (≈ 0.106 µM)
